Experimental data: patent publication US11905306B2 (priority 2021, dated 2024)

Experiments:
USA_WA1/2020 SARS CoV-2 = assay: microbe, parasite or virus in culture; format: cell-based; conditions: Severe acute respiratory syndrome coronavirus 2, Vero C1008, 72 h, read-out: SARS-2 EC50 (μM) VeroE6
SARS-2 [1] = test system: SARS-2
in vitro = conditions: African green monkey
SARS-2 [2] = assay: microbe, parasite or virus in culture; format: cell-based; conditions: Severe acute respiratory syndrome coronavirus 2, read-out: SARS-2 VU-EC50 (μM) (A549-hACE2)
Toronto 2 SARS CoV-1 = assay: organism not typed; format: cell-based; conditions: Vero C1008, 72 h, read-out: SARS-1 EC50 (μM) VeroE6

| SMILES | EC50 (USA_WA1/2020 SARS CoV-2) | SARS-2 VU-VTR @ 20 μM (A549-hACE2) (logs) (SARS-2 [1]) | CC50 (in vitro) | EC50 (SARS-2 [2]) | EC50 (Toronto 2 SARS CoV-1) |
| --- | --- | --- | --- | --- | --- |
| O=C(Nc1ccc(C(=O)Nc2cccc(C#Cc3ccccn3)c2)cc1)c1ccc(F)cc1 [Compound 26, 4-Fluoro-N-(4-((3-(pyridin-2-ylethynyl)phenyl)carbamoyl)phenyl)benzamide] | 0.49 µM | 1.16 logs | > 30000 nM | 0.69 µM | 0.35 µM |
| CC(=O)Nc1ccc(C(=O)Nc2cccc(C#Cc3ccccn3)c2)cc1F [Compound 29, 4-Acetamido-3-fluoro-N-(3-(pyridin-2-ylethynyl)phenyl)benzamide] | 1.07 µM | 2.6 logs | > 30000 nM | 1.86 µM | 0.76 µM |
| O=C(Nc1cccc(C#Cc2ccccn2)c1)c1ccc(-c2ccn[nH]2)cc1 [Compound 40, 4-(1H-Pyrazol-5-yl)-N-(3-(pyridin-2-ylethynyl)phenyl)benzamide] | 1 µM | 3.2 logs | 38600 nM | 0.81 µM | 0.53 µM |
| COC(=O)c1ccc(C(=O)Nc2cccc(C#Cc3ccccn3)c2)cc1 [Compound 43, Methyl 4-((3-(pyridin-2-ylethynyl)phenyl)carbamoyl)benzoate] | 0.52 µM | 2.36 logs | > 30000 nM | 0.58 µM | 0.26 µM |
| CC(C)(C)OC(=O)c1ccc(C(=O)Nc2cccc(C#Cc3ccccn3)c2)cc1 [Compound 44, tert-Butyl 4-((3-(pyridin-2-ylethynyl)phenyl)carbamoyl)benzoate] | 0.16 µM | 2.41 logs | 24200 nM | 0.22 µM | 0.07 µM |
| COc1cc(C#Cc2ccccn2)cc(NC(=O)c2ccc3c(c2)CCC(=O)N3)c1 [Compound 46, N-(3-Methoxy-5-(pyridin-2-ylethynyl)phenyl)-2-oxo-1,2,3,4-tetrahydroquinoline-6-carboxamide] | 0.78 µM | 2.66 logs | > 30000 nM | 0.53 µM | 0.83 µM |
| COc1cc(C#Cc2ccccn2)cc(NC(=O)c2ccc(N3CCCCC3=O)cc2)c1 [Compound 48, N-(3-Methoxy-5-(pyridin-2-ylethynyl)phenyl)-4-(2-oxopiperidin-1-yl)benzamide] | 0.45 µM | 3.08 logs | > 30000 nM | 0.1 µM | 0.21 µM |
| O=C(Nc1cc(C#Cc2ccccn2)cc(OC(F)(F)F)c1)c1ccc(N2CCCCC2=O)cc1 [Compound 50, 4-(2-Oxopiperidin-1-yl)-N-(3-(pyridin-2-ylethynyl)-5-(trifluoromethoxy)phenyl)benzamide] | 0.18 µM | 2.59 logs | > 30000 nM | 0.09 µM | 0.13 µM |
| O=C1CCc2cc(NC(=O)c3cccc(C#Cc4ccccn4)c3)ccc2N1 [Compound 54, N-(2-oxo-1,2,3,4-tetrahydroquinolin-6-yl)-3-(pyridin-2-ylethynyl)benzamide] | 3 µM | 2.24 logs | > 30000 nM | 1.42 µM | > 30 µM |
| CC1(C)CN(c2ccc(NC(=O)c3cccc(C#Cc4ccccn4)c3)cc2)C1=O [Compound 58, N-(4-(3,3-dimethyl-2-oxoazetidin-1-yl)phenyl)-3-(pyridin-2-ylethynyl)benzamide] | 0.5 µM | 1.93 logs | > 40000 nM | 0.38 µM | 0.3 µM |
| O=C(Nc1ccc(N2CCCCC2=O)cc1)c1cccc(C#Cc2ccccn2)c1 [Compound 59, N-(4-(2-oxopiperidin-1-yl)phenyl)-3-(pyridin-2-ylethynyl)benzamide] | 2 µM | 2.98 logs | > 30000 nM | 0.66 µM | 1.05 µM |
| CC(C)OC(=O)c1ccc(NC(=O)c2cccc(C#Cc3ccccn3)c2)cc1 [Compound 65, Isopropyl 4-(3-(pyridin-2-ylethynyl)benzamido)benzoate] | 0.46 µM | 2.78 logs | > 30000 nM | 0.29 µM | 0.16 µM |
| O=C(Nc1ccc(C(=O)OCC2CC2)cc1)c1cccc(C#Cc2ccccn2)c1 [Compound 66, Cyclopropylmethyl 4-(3-(pyridin-2-ylethynyl)benzamido)benzoate] | 0.83 µM | 1.73 logs | > 30000 nM | 0.46 µM | 0.49 µM |
| CC(C)n1nccc1-c1ccc(NC(=O)c2cccc(C#Cc3ccccn3)c2)cc1 [Compound 69, N-(4-(1-isopropyl-1H-pyrazol-5-yl)phenyl)-3-(pyridin-2-ylethynyl)benzamide] | 0.45 µM | 3.3 logs | > 30000 nM | 0.22 µM | 0.24 µM |
| O=C(Nc1ccc(N2CCCCS2(=O)=O)cc1)c1cccc(C#Cc2ccccn2)c1 [Compound 70, N-(4-(1,1-dioxido-1,2-thiazinan-2-yl)phenyl)-3-(pyridin-2-ylethynyl)benzamide] | 1.08 µM | 2.47 logs | > 30000 nM | 0.82 µM | 1.29 µM |
| CCOP(=O)(OCC)c1ccc(NC(=O)c2cccc(C#Cc3ccccn3)c2)cc1 [Compound 73, Diethyl (4-(3-(pyridin-2-ylethynyl)benzamido)phenyl)phosphonate] | 0.45 µM | 2.93 logs | > 30000 nM | 0.003 µM | 0.18 µM |
